“Also recorded” adds a separate entry of the source.

Consider one compound from patent publication US20240092741A1, “COMPOSITION FOR PREVENTION OR TREATMENT OF NEUROFIBROMATOSIS TYPE 2 SYNDROME” (PRG S&TECH INC., priority 2021, published 2024).

In series [1] the test system is NF2-transfected HEI-193 cells. In words: MTT and immunoblotting in NF2-transfected HEI-193 cells. Type of series: cell-based, human. Particulars: NF2-transfected HEI-193 cells (FIGS. 8B, 8C). As to the method: (§1) In other words, cells were seeded at a density of 2×10^5 cells/well in 12-well plates and cultured overnight before transfection. The vector (1.5 μg) was mixed with 1.5 μl of Jetpei reagent dissolved in 150 mM NaCl solution. The mixture was reacted at room temperature for 15 minutes, and then added to the cells. After 3 hours, the serum-free medium 15 was replaced with medium supplemented with 10% FBS. Cells were harvested and lysed using RIPA buffer [50 mM Tris-Cl, pH 7.5, 150 mM NaCl, 1% NP-40, 0.1% SDS, and 10% sodium deoxycholate] to examine cellular signaling. Protein concentrations in samples were measured using Bio-Rad (Hercules, CA, USA) protein assay kits and BSA standards. […] The blots were detected using an HRP-conjugated secondary antibody using ECL kit (Intron, Seoul, Korea). […] Plates were then cultured at 37° C. for 4 hours, the MTT solution was removed, the precipitated substances were dissolved using a solution (DMSO:ethanol=1:1), and an amount of formazan dye produced was quantified by measuring the absorbance at 560 nm using an ELISA microplate reader (Thermo Fisher Scientific, MA, USA).
On the technique in general: In western blotting, separated proteins are transferred to a membrane and probed.

For series [2], the system named is RKIP. In words: RKIP expression by Western blotting in HEI-193 cells. The class given is cell-based, human. The note with it: compounds 10 μM, 24 h (FIG. 1A) or 72 h (FIG. 2), Western blot. The method, then: (§2) Cells were harvested and lysed using RIPA buffer [50 mM Tris-Cl, pH 7.5, 150 mM NaCl, 1% NP-40, 0.1% SDS, and 10% sodium deoxycholate] to examine cellular signaling. Protein concentrations in samples were measured using Bio-Rad (Hercules, CA, USA) protein assay kits and BSA standards. The samples (20 μg protein per lane) were separated by sodium dodecyl sulfate-polyacrylamide gel electrophoresis (SDS-PAGE), transferred to Immobilon-P^SQ transfer membranes (Millipore Corp., MA, USA), which were then cultured with 3% skim milk-containing TBS-T buffer (Tris-HCl-based buffer containing 20 mM Tris pH 7.6, 150 mM NaCl, and 0.05% Tween 20) for 1 hour at room temperature and then reacted with primary antibody in TBS-T overnight at 4° C. The membranes were then washed and reacted with secondary horseradish peroxidase (HRP)-conjugated antibodies [goat anti-mouse, goat anti-rabbit, and mouse anti-goat antibodies (Pierce, Thermo Fisher Scientific, Inc., Rockford, IL, USA)] in TBS-T at room temperature for 2 hours. The blots were detected using an HRP-conjugated secondary antibody using ECL kit (Intron, Seoul, Korea).
Because RKIP degradation in NF2 cells is clearly known (Mol Cancer Ther 17, 2271-2284, 2018), after first treating 260 novel synthetic compounds, RKIP expression was measured in HEI-193, a human NF2 cell line.

The test system of series [3] is NF2-transfected mouse schwannoma cells. In words: MTT and immunoblotting in NF2-transfected mouse schwannoma cells. Particulars: NF2-transfected mouse schwannoma cells (FIGS. 9C, 9D). Type of series: cell-based. The method, then: as §1
Series [4] has as its system HEI-193 cells. In words: Microarray gene expression profile of HEI-193 cells. Particulars: PRG-N-01-treated HEI-193 cells vs control. Type of series: cell-based, human. As to the method:
Total RNA (500 ng) was extracted using an RNAeasy kit (Qiagen). RNA labeling, hybridization on Human Gene 1.0 ST array (Affymetrix), and data analysis were performed using DNA Link (Seoul, Korea). Genes showing at least a 2-fold difference in each cell line were selected for further analysis.

Series [5] relates to RKIP. In words: RKIP / p-Erk immunoblotting in mouse schwannoma (mouse NF2) cells. Type of series: cell-based. The method, then: as §2
Series [6] in a line: High-dose toxicity in normal mice (body weight). The class given is in vivo.
The test system of series [7] is HEI-193 cells. In words: Cell proliferation (cell counting) in HEI-193 cells. The class given is cell-based, human. The note with it: 10 μM, indicated time (FIG. 12B). As to the method: Cell growth curves were analyzed by seeding 2×10^4 cells/well into a 6-well plate. After the indicated day, the cells were trypsinized and dissociated into single cells. A minimum of 10,000 cells were counted using an Attune NxT flow cytometer (Thermo Fisher Scientific, Inc., Rockford, IL, USA).

On to `CCN(CC)CCOc1ccc(-c2nnn(Cc3ccc(OC)cc3)c2N)cc1` [PRG-N-01, 4-(4-(2-(diethylamino)ethoxy)phenyl)-1-(4-methoxybenzyl)-1H-1,2,3-triazol-5-amino], for which, in series [1], the “chemical effect (antiproliferating effect, RKIP induction, p-Erk suppression)” value is listed as “no chemical effect”. Besides, in series [2], the RKIP expression result is “induced RKIP expression; also recorded: increased RKIP expression”. Besides, in series [3], the “chemical effect (antiproliferating effect, RKIP induction, p-Erk suppression)” value is “no chemical effect”. Further, in series [4], the “Log2Ratio, gene FABP3 (fatty acid binding protein 3, muscle and heart)” value is −2.272; the “Log2Ratio, gene HIST1H1B” value is recorded as −2.475; the “Log2Ratio, gene MEST” value is on record as −1.95; the “Log2Ratio, gene MMP1” value is on record as 2.163. Also, in series [4], the “Log2Ratio, gene MSMO1” value is −1.988; the “Log2Ratio, gene OLFML3” value is listed as −2.099; the “Log2Ratio, gene PBK” value is −1.976; the “Log2Ratio, gene PLK1 (polo-like kinase 1)” value was −2.041. In series [4], the “Log2Ratio, gene PRR11” value is on record as −2.207; the “Log2Ratio, gene TOP2A” value is given as −1.931; the “cell-cycle-related genes (PLK1, CENPE) expression” value was “downregulated”; the “lipid metabolism-related genes (PNILPRP3, NR4A2, ABCA1) expression” value is recorded as “strikingly upregulated”. In addition, in series [4], the “tenascin C gene expression (readout of canonical TGF-β signaling)” value is listed as “considerably upregulated”. Besides, the RKIP expression result in series [5] (mouse NF2 cell line) is listed as “increased RKIP expression”. Also, the “RKIP induction and p-Erk suppression” value in series [5] (mouse schwannoma cells, 36 h (FIG. 9B)) was “observed only in actual mouse schwannoma”. Further, in series [6] (200 mg/kg intraperitoneally (FIG. 18B)), the body weight result was “did not change the body weight”. Moreover, the toxicity entry in series [6] (200 mg/kg, 10 times the therapeutic dose) is “did not cause severe toxicity”. Moreover, the “cell growth (cell count)” value in series [7] was “completely inhibited cell growth”.
